Measured values: PubChem BioAssay (NCI)
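48-hour exposure; five concentrations; linearly interpolated endpoints. Abbreviation: GI50, concentration required for 50% inhibition of growth. TGI: concentration producing complete growth inhibition.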 Where a SMILES comes first, the peptide text is derived from it. [ ]: non-standard residue; d: D form. The star is where a group is joined. ξ: configuration not given here. Decanoyl(3R-OH) = CCCCCCC[C@@H](O)CC(=O)*; ξK = NCCCCC(N)C(=O)O; ξP = O=C(O)C1CCCN1

How the values were obtained:
Experiment in all cases: NCI anticancer screen, dose series, 48 h
DU-145 prostate = test system: DU-145 prostate
OVCAR-8 ovarian = test system: OVCAR-8 ovarian
HL-60(TB) leukemia = test system: HL-60(TB) leukemia
SNB-19 CNS = test system: SNB-19 CNS
COLO 205 colon = test system: COLO 205 colon
SF-295 CNS = test system: SF-295 CNS
RXF 393 renal = test system: RXF 393 renal
OVCAR-5 ovarian = test system: OVCAR-5 ovarian
SK-MEL-5 melanoma = test system: SK-MEL-5 melanoma
EKVX NSCLC = test system: EKVX NSCLC
MCF7 breast = test system: MCF7 breast
PC-3 prostate = test system: PC-3 prostate
MOLT-4 leukemia = test system: MOLT-4 leukemia
HT29 colon = test system: HT29 colon
786-0 renal = test system: 786-0 renal
OVCAR-3 ovarian = test system: OVCAR-3 ovarian
NCI-H226 lung = test system: NCI-H226 lung
NCI-H23 lung = test system: NCI-H23 lung
CAKI-1 renal = test system: CAKI-1 renal
UACC-62 melanoma = test system: UACC-62 melanoma
U251 CNS = test system: U251 CNS
K-562 leukemia = test system: K-562 leukemia
UO-31 renal = test system: UO-31 renal
IGROV1 ovarian = test system: IGROV1 ovarian
BT-549 breast = test system: BT-549 breast
MDA-MB-231 breast = test system: MDA-MB-231 breast
SN12C renal = test system: SN12C renal
HOP-62 NSCLC = test system: HOP-62 NSCLC
UACC-257 melanoma = test system: UACC-257 melanoma
SW-620 colon = test system: SW-620 colon
NCI-H460 lung = test system: NCI-H460 lung
SF-268 CNS = test system: SF-268 CNS
HCT-116 colon = test system: HCT-116 colon
SK-MEL-28 melanoma = test system: SK-MEL-28 melanoma
SR leukemia = test system: SR leukemia
RPMI-8226 leukemia = test system: RPMI-8226 leukemia
HCT-15 colon = test system: HCT-15 colon
NCI/ADR-RES ovarian = test system: NCI/ADR-RES ovarian
SNB-75 CNS = test system: SNB-75 CNS
HS 578T breast = test system: HS 578T breast
KM12 colon = test system: KM12 colon
SF-539 CNS = test system: SF-539 CNS
A549 NSCLC = test system: A549 NSCLC
ACHN renal = test system: ACHN renal
SK-MEL-2 melanoma = test system: SK-MEL-2 melanoma
NCI-H522 lung = test system: NCI-H522 lung
MDA-MB-435 = test system: MDA-MB-435
TK-10 renal = test system: TK-10 renal
LOX IMVI melanoma = test system: LOX IMVI melanoma
HOP-92 NSCLC = test system: HOP-92 NSCLC
OVCAR-4 ovarian = test system: OVCAR-4 ovarian
HCC-2998 colon = test system: HCC-2998 colon
M14 melanoma = test system: M14 melanoma
SK-OV-3 ovarian = test system: SK-OV-3 ovarian
A498 renal = test system: A498 renal
MALME-3M melanoma = test system: MALME-3M melanoma
CCRF-CEM leukemia = test system: CCRF-CEM leukemia

## CCCCCCC[C@@H](O)CC(=O)N[C@H](CCCCN)C(=O)N[C@H](Cc1c[nH]c2ccccc12)C(=O)NC(CCCCN)C(=O)N[C@H](CC(C)C)C(=O)N[C@H](Cc1ccccc1)C(=O)N[C@H](CCCCN)C(=O)N[C@H](CCCCN)C(=O)N[C@H](CC(C)C)C(=O)N1CCCC1C(=O)N[C@H](CCCCN)C(=O)N[C@H](Cc1ccccc1)C(=O)N[C@H](CC(C)C)C(=O)N[C@H](Cc1c[nH]cn1)C(=O)N[C@H](CC(C)C)C(=O)N[C@H](C)C(=O)N[C@H](CCCCN)C(=O)N[C@H](CCCCN)C(=O)N[C@H](Cc1ccccc1)C(=O)O (stereo partly drawn) ({Decanoyl(3R-OH)}-[dK][dW][ξK][dL][dF][dK][dK][dL][ξP][dK][dF][dL][dH][dL][dA][dK][dK][dF]-OH)
DU-145 prostate
  GI50: 0.607 µM
  TGI: 1.12 µM
OVCAR-8 ovarian
  GI50: 0.814 µM
  TGI: 33.3 µM
HL-60(TB) leukemia
  GI50: 0.743 µM
  TGI: 1.71 µM

## COc1ccc(Nc2c3ccccc3nc3c2c2ccccc2n3C)cc1
SNB-19 CNS
  GI50: > 100 µM
  TGI: > 100 µM
COLO 205 colon
  GI50: 15.2 µM
  TGI: > 100 µM
SF-295 CNS
  GI50: 22.3 µM
  TGI: > 100 µM
RXF 393 renal
  GI50: 64.9 µM
  TGI: > 100 µM
OVCAR-5 ovarian
  GI50: > 100 µM
  TGI: > 100 µM
SK-MEL-5 melanoma
  GI50: 14 µM
  TGI: 37.4 µM
EKVX NSCLC
  GI50: 7.91 µM
  TGI: 60.3 µM
MCF7 breast
  GI50: 28.3 µM
  TGI: 86.3 µM
PC-3 prostate
  GI50: 11.1 µM
  TGI: 54.2 µM
MOLT-4 leukemia
  GI50: 1.88 µM
  TGI: 5.36 µM
HT29 colon
  GI50: 13.6 µM
  TGI: > 100 µM
786-0 renal
  GI50: 40.6 µM
  TGI: > 100 µM
OVCAR-3 ovarian
  GI50: 23.5 µM
  TGI: > 100 µM
NCI-H226 lung
  GI50: 27.6 µM
  TGI: > 100 µM
NCI-H23 lung
  GI50: 34.8 µM
  TGI: > 100 µM
CAKI-1 renal
  GI50: 30.7 µM
  TGI: > 100 µM
UACC-62 melanoma
  GI50: 11.4 µM
  TGI: 41.5 µM
U251 CNS
  GI50: 36.5 µM
  TGI: > 100 µM
K-562 leukemia
  GI50: 5.57 µM
  TGI: > 100 µM
UO-31 renal
  GI50: > 100 µM
  TGI: > 100 µM
IGROV1 ovarian
  GI50: 15.3 µM
  TGI: > 100 µM
BT-549 breast
  GI50: 11 µM
  TGI: 43.4 µM
MDA-MB-231 breast
  GI50: 34.8 µM
  TGI: > 100 µM
DU-145 prostate
  GI50: 15.6 µM
  TGI: > 100 µM
SN12C renal
  GI50: 58.6 µM
  TGI: > 100 µM
HOP-62 NSCLC
  GI50: > 100 µM
  TGI: > 100 µM
UACC-257 melanoma
  GI50: 37.5 µM
  TGI: > 100 µM
SW-620 colon
  GI50: 41.7 µM
  TGI: > 100 µM
NCI-H460 lung
  GI50: 5.2 µM
  TGI: > 100 µM
SF-268 CNS
  GI50: 28 µM
  TGI: > 100 µM
HCT-116 colon
  GI50: 30 µM
  TGI: > 100 µM
SK-MEL-28 melanoma
  GI50: > 100 µM
  TGI: > 100 µM
SR leukemia
  GI50: 2.75 µM
  TGI: 14 µM
RPMI-8226 leukemia
  GI50: 3.77 µM
  TGI: 24.7 µM
HCT-15 colon
  GI50: 11.1 µM
  TGI: > 100 µM
NCI/ADR-RES ovarian
  GI50: 34 µM
  TGI: > 100 µM
SNB-75 CNS
  GI50: > 100 µM
  TGI: > 100 µM
HS 578T breast
  GI50: 46.4 µM
  TGI: > 100 µM
OVCAR-8 ovarian
  GI50: 57.5 µM
  TGI: > 100 µM
KM12 colon
  GI50: 6.61 µM
  TGI: 53.3 µM
SF-539 CNS
  GI50: 8.78 µM
  TGI: 27.5 µM
A549 NSCLC
  GI50: 17.8 µM
  TGI: > 100 µM
ACHN renal
  GI50: 21.6 µM
  TGI: > 100 µM
HL-60(TB) leukemia
  GI50: 3.99 µM
  TGI: 45.6 µM
SK-MEL-2 melanoma
  GI50: 57.6 µM
  TGI: > 100 µM
NCI-H522 lung
  GI50: 78.3 µM
  TGI: > 100 µM
MDA-MB-435
  GI50: 30.5 µM
  TGI: > 100 µM
TK-10 renal
  GI50: 13 µM
  TGI: > 100 µM
LOX IMVI melanoma
  GI50: 7.62 µM
  TGI: 47.2 µM

## COc1ccc(CN2c3ccccc3Sc3ccccc32)cc1F
SNB-19 CNS
  GI50: 0.463 µM
  TGI: > 100 µM
COLO 205 colon
  GI50: 0.31 µM
  TGI: 1.36 µM
SF-295 CNS
  GI50: 0.323 µM
  TGI: > 48.4 µM
OVCAR-5 ovarian
  GI50: > 30.4 µM
  TGI: > 100 µM
SK-MEL-5 melanoma
  GI50: 0.446 µM
  TGI: > 100 µM
EKVX NSCLC
  GI50: 0.78 µM
  TGI: > 100 µM
MCF7 breast
  GI50: 0.464 µM
  TGI: > 100 µM
PC-3 prostate
  GI50: 0.448 µM
  TGI: > 100 µM
MOLT-4 leukemia
  GI50: 0.438 µM
  TGI: > 100 µM
HT29 colon
  GI50: 0.352 µM
  TGI: > 100 µM
786-0 renal
  GI50: 0.615 µM
  TGI: > 100 µM
OVCAR-3 ovarian
  GI50: 0.312 µM
  TGI: 2.04 µM
NCI-H226 lung
  GI50: > 47.1 µM
  TGI: > 100 µM
NCI-H23 lung
  GI50: 0.682 µM
  TGI: > 100 µM
HOP-92 NSCLC
  GI50: 1.25 µM
  TGI: > 38.9 µM
OVCAR-4 ovarian
  GI50: 0.964 µM
  TGI: > 100 µM
CAKI-1 renal
  GI50: 0.399 µM
  TGI: > 100 µM
UACC-62 melanoma
  GI50: 0.516 µM
  TGI: > 100 µM
U251 CNS
  GI50: 0.561 µM
  TGI: > 100 µM
K-562 leukemia
  GI50: 0.383 µM
  TGI: > 100 µM
UO-31 renal
  GI50: 1.12 µM
  TGI: > 100 µM
IGROV1 ovarian
  GI50: 1.45 µM
  TGI: > 100 µM
BT-549 breast
  GI50: 1.34 µM
  TGI: > 23.4 µM
HCC-2998 colon
  GI50: 1.11 µM
  TGI: > 35.8 µM
MDA-MB-231 breast
  GI50: 0.917 µM
  TGI: > 88.1 µM
DU-145 prostate
  GI50: 0.477 µM
  TGI: > 100 µM
M14 melanoma
  GI50: 0.365 µM
  TGI: > 100 µM
SN12C renal
  GI50: 1.13 µM
  TGI: > 100 µM
HOP-62 NSCLC
  GI50: 4.34 µM
  TGI: > 100 µM
SK-OV-3 ovarian
  GI50: 0.559 µM
  TGI: > 100 µM
SW-620 colon
  GI50: 0.398 µM
  TGI: > 100 µM
A498 renal
  GI50: 0.283 µM
  TGI: 0.927 µM
NCI-H460 lung
  GI50: 0.379 µM
  TGI: > 100 µM
SF-268 CNS
  GI50: 1.14 µM
  TGI: > 100 µM
HCT-116 colon
  GI50: 0.437 µM
  TGI: > 100 µM
SK-MEL-28 melanoma
  GI50: > 55 µM
  TGI: > 100 µM
SR leukemia
  GI50: 0.36 µM
  TGI: > 42.7 µM
RPMI-8226 leukemia
  GI50: 0.483 µM
  TGI: > 100 µM
HCT-15 colon
  GI50: 0.435 µM
  TGI: > 100 µM
NCI/ADR-RES ovarian
  GI50: 0.322 µM
SNB-75 CNS
  GI50: 0.257 µM
  TGI: 98.8 µM
HS 578T breast
  GI50: 0.458 µM
  TGI: > 100 µM
OVCAR-8 ovarian
  GI50: 0.712 µM
  TGI: > 100 µM
KM12 colon
  GI50: 0.471 µM
  TGI: > 100 µM
MALME-3M melanoma
  GI50: > 100 µM
  TGI: > 100 µM
SF-539 CNS
  GI50: 0.316 µM
  TGI: 5.58 µM
A549 NSCLC
  GI50: 0.675 µM
  TGI: > 100 µM
ACHN renal
  GI50: 1.25 µM
  TGI: > 100 µM
SK-MEL-2 melanoma
  GI50: 0.476 µM
  TGI: > 100 µM
CCRF-CEM leukemia
  GI50: 0.407 µM
  TGI: > 100 µM
NCI-H522 lung
  GI50: 0.266 µM
  TGI: 0.804 µM
MDA-MB-435
  GI50: 0.198 µM
  TGI: 0.469 µM
TK-10 renal
  GI50: > 100 µM
  TGI: > 100 µM
LOX IMVI melanoma
  GI50: 0.798 µM
  TGI: > 100 µM
